The subject of this assay is opiate receptor. Put plainly: Specific binding affinity of radio-iodinated peaks for the opiate receptor. To be noted: monoiodinated (first peak) compared with diiodinated (second peak) compound. The procedure: The material comprising this peak was applied to a Sephadex 2-(diethylamino)ethyl ether column and eluted with sodium borate buffer (12.5 mM, pH 9.0, 0.1 N sodium chloride).

Regarding `CC(C)C[C@H](NC(=O)[C@H](Cc1ccccc1)NC(=O)CNC(=O)[C@@H](C)NC(=O)[C@@H](N)Cc1ccc(O)c([125I])c1)C(=O)O` [material of the first peak, H.Tyr(3-^125 I).D-Ala.Gly.Phe.Leu.OH], the “specific binding affinity (for the opiate receptor)” value was “greater specific binding affinity (for the opiate receptor) than that of the second peak”.
